According to PubChem BioAssay (NCI):
Several values for one entry are separate records, joined by “and”; a condition that tells them apart may be missing. Identical values can stand only once.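 Protocol summary: plate cells (96-well), add compound at 5 concentrations, incubate 48 h, interpolate endpoints linearly. At the GI50, growth is halved. TGI: total growth inhibition.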

Assays:
Experiment in all cases: growth of human tumour cells (NCI), 48 h
786-0 renal = system: 786-0 renal
A498 renal = system: A498 renal
A549 NSCLC = system: A549 NSCLC
ACHN renal = system: ACHN renal
BT-549 breast = system: BT-549 breast
CAKI-1 renal = system: CAKI-1 renal
CCRF-CEM leukemia = system: CCRF-CEM leukemia
COLO 205 colon = system: COLO 205 colon
DU-145 prostate = system: DU-145 prostate
EKVX NSCLC = system: EKVX NSCLC
HCC-2998 colon = system: HCC-2998 colon
HCT-116 colon = system: HCT-116 colon
HCT-15 colon = system: HCT-15 colon
HL-60(TB) leukemia = system: HL-60(TB) leukemia
HOP-62 NSCLC = system: HOP-62 NSCLC
HOP-92 NSCLC = system: HOP-92 NSCLC
HS 578T breast = system: HS 578T breast
HT29 colon = system: HT29 colon
IGROV1 ovarian = system: IGROV1 ovarian
K-562 leukemia = system: K-562 leukemia
KM12 colon = system: KM12 colon
LOX IMVI melanoma = system: LOX IMVI melanoma
M14 melanoma = system: M14 melanoma
MALME-3M melanoma = system: MALME-3M melanoma
MCF7 breast = system: MCF7 breast
MDA-MB-231 breast = system: MDA-MB-231 breast
MDA-MB-435 = system: MDA-MB-435
MOLT-4 leukemia = system: MOLT-4 leukemia
NCI-H226 lung = system: NCI-H226 lung
NCI-H23 lung = system: NCI-H23 lung
NCI-H460 lung = system: NCI-H460 lung
NCI-H522 lung = system: NCI-H522 lung
NCI/ADR-RES ovarian = system: NCI/ADR-RES ovarian
OVCAR-3 ovarian = system: OVCAR-3 ovarian
OVCAR-4 ovarian = system: OVCAR-4 ovarian
OVCAR-5 ovarian = system: OVCAR-5 ovarian
OVCAR-8 ovarian = system: OVCAR-8 ovarian
PC-3 prostate = system: PC-3 prostate
RPMI-8226 leukemia = system: RPMI-8226 leukemia
RXF 393 renal = system: RXF 393 renal
SF-268 CNS = system: SF-268 CNS
SF-295 CNS = system: SF-295 CNS
SF-539 CNS = system: SF-539 CNS
SK-MEL-2 melanoma = system: SK-MEL-2 melanoma
SK-MEL-28 melanoma = system: SK-MEL-28 melanoma
SK-MEL-5 melanoma = system: SK-MEL-5 melanoma
SK-OV-3 ovarian = system: SK-OV-3 ovarian
SN12C renal = system: SN12C renal
SNB-19 CNS = system: SNB-19 CNS
SNB-75 CNS = system: SNB-75 CNS
SR leukemia = system: SR leukemia
SW-620 colon = system: SW-620 colon
T-47D breast = system: T-47D breast
TK-10 renal = system: TK-10 renal
U251 CNS = system: U251 CNS
UACC-257 melanoma = system: UACC-257 melanoma
UACC-62 melanoma = system: UACC-62 melanoma
UO-31 renal = system: UO-31 renal

CN(C)c1ccc(C(=N)c2ccc(N(C)C)cc2)cc1
GI50 (786-0 renal): 6.12 µM and 8.26 µM | TGI (786-0 renal): 24.4 µM and 32 µM | TGI (A498 renal): 7.45 µM and 4.58 µM | GI50 (A549 NSCLC): 5.1 µM and 3.95 µM | TGI (A549 NSCLC): 36.7 µM and > 100 µM | GI50 (ACHN renal): 6.5 µM and 7.39 µM | TGI (ACHN renal): > 100 µM | GI50 (BT-549 breast): 3.77 µM and 5.1 µM | TGI (BT-549 breast): 28.9 µM and 29.2 µM | GI50 (CAKI-1 renal): 1.62 µM and 3.57 µM | TGI (CAKI-1 renal): 14.6 µM and 68.5 µM | GI50 (CCRF-CEM leukemia): 5.33 µM | TGI (CCRF-CEM leukemia): 64.5 µM | GI50 (COLO 205 colon): 2.49 µM and 2.16 µM | TGI (COLO 205 colon): 10.7 µM and 8.83 µM | GI50 (DU-145 prostate): 4.14 µM and 5.93 µM | TGI (DU-145 prostate): > 100 µM | GI50 (EKVX NSCLC): 5.33 µM and 5.17 µM | TGI (EKVX NSCLC): > 100 µM | GI50 (HCC-2998 colon): 6.39 µM and 7.12 µM | TGI (HCC-2998 colon): 33.6 µM and 32.6 µM | GI50 (HCT-116 colon): 2.41 µM and 3.46 µM | TGI (HCT-116 colon): 14.2 µM and 41 µM | GI50 (HCT-15 colon): 2.56 µM and 2.6 µM | TGI (HCT-15 colon): > 100 µM | GI50 (HL-60(TB) leukemia): 3.3 µM | TGI (HL-60(TB) leukemia): 14.8 µM | GI50 (HOP-62 NSCLC): 5.11 µM and 2.96 µM | TGI (HOP-62 NSCLC): 39.6 µM and 20.5 µM | GI50 (HOP-92 NSCLC): 0.942 µM and 1.52 µM | TGI (HOP-92 NSCLC): 6.24 µM and 8.69 µM | GI50 (HS 578T breast): 1.73 µM and 4.1 µM | TGI (HS 578T breast): 7.64 µM and 59.3 µM | GI50 (HT29 colon): 1.32 µM and 2.11 µM | TGI (HT29 colon): 11.6 µM and 16.4 µM | GI50 (IGROV1 ovarian): 3.45 µM and 7.32 µM | TGI (IGROV1 ovarian): 31.7 µM and > 100 µM | GI50 (K-562 leukemia): 0.553 µM | TGI (K-562 leukemia): 64.9 µM | GI50 (KM12 colon): 1.58 µM and 1.65 µM | TGI (KM12 colon): 16.2 µM and 21.5 µM | GI50 (LOX IMVI melanoma): 5.37 µM and 4.92 µM | TGI (LOX IMVI melanoma): 33 µM and 30.2 µM | GI50 (M14 melanoma): 2.13 µM and 2.95 µM | TGI (M14 melanoma): 10.8 µM and 16.8 µM | GI50 (MALME-3M melanoma): 3.04 µM and 9.7 µM | TGI (MALME-3M melanoma): 28.8 µM and 62.2 µM | GI50 (MCF7 breast): 1.34 µM and 1.29 µM | TGI (MCF7 breast): 32.3 µM and 38.3 µM | GI50 (MDA-MB-231 breast): 5.77 µM and 7.67 µM | TGI (MDA-MB-231 breast): 47.5 µM and 30.9 µM | GI50 (MDA-MB-435): 0.375 µM and 0.382 µM | TGI (MDA-MB-435): 3.19 µM and 9.02 µM | GI50 (MOLT-4 leukemia): 3.66 µM | TGI (MOLT-4 leukemia): 26 µM | GI50 (NCI-H226 lung): 7.81 µM and 9.07 µM | TGI (NCI-H226 lung): 51.6 µM and 47.2 µM | GI50 (NCI-H23 lung): 4.47 µM and 2.16 µM | TGI (NCI-H23 lung): 34.6 µM and 6.59 µM | GI50 (NCI-H460 lung): 3.01 µM and 3.54 µM | TGI (NCI-H460 lung): 12.6 µM and 20 µM | GI50 (NCI-H522 lung): 0.503 µM and 1.16 µM | TGI (NCI-H522 lung): 5.01 µM and 9.45 µM | GI50 (NCI/ADR-RES ovarian): 1.68 µM and 1.52 µM | TGI (NCI/ADR-RES ovarian): 7.42 µM and 5.04 µM | GI50 (OVCAR-3 ovarian): 1.68 µM and 1.91 µM | TGI (OVCAR-3 ovarian): 5.26 µM and 7.3 µM | GI50 (OVCAR-4 ovarian): 5.86 µM and 3.71 µM | TGI (OVCAR-4 ovarian): > 100 µM | GI50 (OVCAR-5 ovarian): 7.57 µM and 7.89 µM | TGI (OVCAR-5 ovarian): > 100 µM | GI50 (OVCAR-8 ovarian): 3.79 µM and 3.55 µM | TGI (OVCAR-8 ovarian): 19.1 µM and 28.1 µM | GI50 (PC-3 prostate): 3.75 µM and 3.74 µM | TGI (PC-3 prostate): 36.2 µM and > 100 µM | GI50 (RPMI-8226 leukemia): 1.8 µM and 2.28 µM | TGI (RPMI-8226 leukemia): 7.43 µM and 10.9 µM | GI50 (RXF 393 renal): 2.93 µM and 2.86 µM | TGI (RXF 393 renal): 12.2 µM and 19.3 µM | GI50 (SF-268 CNS): 4.64 µM and 11.6 µM | TGI (SF-268 CNS): 43.4 µM and > 100 µM | GI50 (SF-295 CNS): 2.01 µM and 3.4 µM | TGI (SF-295 CNS): 11.9 µM and 21.9 µM | GI50 (SF-539 CNS): 2.88 µM and 3.5 µM | TGI (SF-539 CNS): 11.5 µM and 25.7 µM | GI50 (SK-MEL-2 melanoma): 2.24 µM and 3.92 µM | TGI (SK-MEL-2 melanoma): 8.35 µM and 16.7 µM | GI50 (SK-MEL-28 melanoma): 4.82 µM and 3.26 µM | TGI (SK-MEL-28 melanoma): 48.8 µM and 27.5 µM | GI50 (SK-MEL-5 melanoma): 2.74 µM and 2.92 µM | TGI (SK-MEL-5 melanoma): 10.9 µM and 13.2 µM | GI50 (SK-OV-3 ovarian): 3.55 µM and 2.92 µM | TGI (SK-OV-3 ovarian): 16.6 µM and 22.3 µM | GI50 (SN12C renal): 6.32 µM and 6.04 µM | TGI (SN12C renal): > 100 µM | GI50 (SNB-19 CNS): 4.38 µM and 16 µM | TGI (SNB-19 CNS): > 100 µM | GI50 (SNB-75 CNS): 1.65 µM and 1.63 µM | TGI (SNB-75 CNS): 11.4 µM and 7.35 µM | GI50 (SR leukemia): 0.736 µM | TGI (SR leukemia): 5.3 µM | GI50 (SW-620 colon): 1.95 µM and 2.58 µM | TGI (SW-620 colon): 20.8 µM and > 100 µM | GI50 (T-47D breast): 5.51 µM and 3.42 µM | TGI (T-47D breast): 44.8 µM and 29.2 µM | GI50 (TK-10 renal): 4.47 µM and 7.22 µM | TGI (TK-10 renal): 38.9 µM and 91.6 µM | GI50 (U251 CNS): 3.54 µM and 3.11 µM | TGI (U251 CNS): 18.9 µM and 17.7 µM | GI50 (UACC-257 melanoma): 6.56 µM and 4.76 µM | TGI (UACC-257 melanoma): 30.8 µM and 32.6 µM | GI50 (UACC-62 melanoma): 3.24 µM and 5.32 µM | TGI (UACC-62 melanoma): 17.6 µM and 23.9 µM | GI50 (UO-31 renal): 3.65 µM and 5.86 µM | TGI (UO-31 renal): 32 µM and > 100 µM
